Measured values taken from patent publication US20260199365A1, “BIS-SULFONAMIDE SHIP1 ACTIVATORS” (The Research Foundation for the State University of New York, priority 2022, published 2026).
“Also recorded” adds a separate entry of the source.

Biological target: T1, recombinant human truncated SHIP1 (tSHIP1) (Homo sapiens, UniProt Q92835)
T1 construct: tSHIP1 (SHIP1, residues 397-864) was amplified from pET24TEV-tSHIP1; His tag; made in house; host or cells: E. coli BL21
T1 sequence (Q92835 397-864): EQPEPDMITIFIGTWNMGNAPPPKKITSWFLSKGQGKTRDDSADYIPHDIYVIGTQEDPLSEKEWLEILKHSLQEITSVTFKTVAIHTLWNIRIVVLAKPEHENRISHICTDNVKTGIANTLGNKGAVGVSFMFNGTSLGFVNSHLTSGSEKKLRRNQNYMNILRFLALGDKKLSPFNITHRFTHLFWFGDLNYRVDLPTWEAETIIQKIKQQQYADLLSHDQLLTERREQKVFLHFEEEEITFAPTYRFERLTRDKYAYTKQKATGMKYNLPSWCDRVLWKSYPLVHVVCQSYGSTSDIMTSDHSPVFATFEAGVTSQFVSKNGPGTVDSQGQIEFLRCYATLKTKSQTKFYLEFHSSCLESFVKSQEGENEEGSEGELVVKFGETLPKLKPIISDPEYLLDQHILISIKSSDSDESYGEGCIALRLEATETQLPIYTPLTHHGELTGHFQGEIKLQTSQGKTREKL
Test: Malachite Green Phosphatase Release Assay (SHIP1 phosphatase activity)
Format: biochemical
Details: for Phosphatase activity in the Malachite Green Assay, analog concentration 250 μM: 250 μM analog; for Phosphatase activity in the Malachite Green Assay, analog concentration 250 μM / Phosphatase activity in the Malachite Green Assay, analog concentration 500 μM / Phosphatase activity in the Malachite Green Assay, analog concentration 125 μM: 100 μM PI(3,4,5)P3-diC8 substrate, normalized to vehicle control (DMSO) = 100%; for Phosphatase activity in the Malachite Green Assay, analog concentration 500 μM: 500 μM analog, >100% activation, <100% inhibition; for SHIP1 activator activity in the malachite green assay: discussion of Table 4 (125-500 μM); for Phosphatase activity in the Malachite Green Assay, analog concentration 125 μM: 125 μM analog
Method: ^aPhosphatase activity for SHIP1 and SHIP2 enzyme as determined in the malachite green assay. Results were normalized to the phosphatase activity level from vehicle control (DMSO) used as 100% activity. Values >100% are attributed to activation, while values <100% show inhibition of the enzyme compared to the control. The assay was performed at the indicated concentration of the small molecule with 100 μM PI(3,4,5)P3-diC8 as the substrate. ^bnd=not determined, compound 23 was insoluble.
Cloning and expression of tSHIP1 of truncated human SHIP1 protein (tSHIP1) from human whole blood mRNA have been previously described (see Brooks R, Iyer, S., Akada, H., Neelam, S., Russo, C. M., Chisholm, J. D., and Kerr W. G. Coordinate Expansion of Murine Hematopoietic and Mesenchymal Stem Cell Compartments by SHIPi Stem Cells 2015; 33:848). Briefly, tSHIP1 (SHIP1, residues 397-864) was amplified from pET24TEV-tSHIP1. Plasmids were extracted with Midi Prep (Qiagen) and sequences were verified by sequencing of the entire expression regions. The plasmids were then transformed into E. coli BL21 (New England Biolabs). Fresh colonies were amplified in 1 L LB at 37° C., shaking at 250 rpm until OD600 nm reached 0.6. Protein expression was induced with […] IPTG and incubation was continued at 16° C., shaking at 250 rpm for 16 h. Following centrifugation, bacteria pellets were stored overnight at −20° C. Protein was extracted form bacterial cell pellet using BugBuster HT (Millipore), according to manufacturer's recommendations. The His-tagged protein was purified by FPLC using HisTrapHP 5 ml column (Cytiva Life Sciences) at a 5 ml/min flow rate and 10 mM-1M imidazole gradient in Buffer A (20 mM Tris pH 8.0, 300 mM NaCl, 10 mM imidazole, 5 mM β-mercaptoethanol). Fractions containing active protein by Malachite Green Phosphatase Release Assay (Echelon, see below) were pooled, concentrated and buffer exchanged to reduce imidazole concentration by centrifugation using Pierce Protein Concentrators 30KMWCO PES, (ThermoFisher Scientific). Protein was aliquoted and stored at −80° C. in a mixture of Buffer A (without β-ME) and 50% glycerol.
Malachite Green Phosphatase Release Assays: Malachite Green Phosphatase Release Assays (Echelon Biosciences) were performed with recombinant human truncated SHIP1 (tSHIP1) (Brooks, 2015) and SHIP2 (Echelon Biosciences). Briefly, serial dilutions of the compounds dissolved in DMSO were added to the recombinant enzymes diluted in reaction buffer Rx (50 mM Hepes pH 7.4, 150 mM NaCl, 1 mM MgCl2, 0.25 mM EDTA) in triplicate reactions in 96-well plates. Reactions were incubated for 2 min at room temperature. […] of 1 mM Phosphatidylinositol 3,4,5-trisphosphate diC8 (PI(3,4,5)P3diC8) (Echelon Biosciences) was added to each reaction to a final concentration of 100 μM in a final volume of […]. Following 20 min incubation at 37° C., 100 μL of Malachite Green Solution (Echelon Biosciences) was added to each well and plates were incubated at room temperature in the dark for 15 min. Plates were then read at 620 nm on a plate reader (Synergy 2, BioTek).

Row | SMILES | Malachite (SHIP1), 125 μM (bis-sulfonamide hybrids, 125 μM) | Malachite (SHIP1), 250 μM (bis-sulfonamide hybrids, 250 μM) | Malachite (SHIP1), 500 μM (bis-sulfonamide hybrids, 500 μM) | Phosphatase activity in the Malachite Green Assay, analog concentration 250 μM | Phosphatase activity in the Malachite Green Assay, analog concentration 500 μM | SHIP1 activator activity in the malachite green assay | Phosphatase activity in the Malachite Green Assay, analog concentration 125 μM | SHIP1 activator activity in the malachite green assay (listed as 22)
1 | O=C(Nc1ccc(S(=O)(=O)N2CCCCC2)cc1)[C@@H]1CCCN1S(=O)(=O)c1ccc(C(F)(F)F)cc1 (stereo in doubt) [Compound K423] | 99% | 109% | 136% | – | – | – | – | –
2 | Cc1sc(S(=O)(=O)N2CCOCC2)cc1NC(=O)CNS(=O)(=O)c1ccc(F)cc1 [Compound K367, 2-(4-Fluorobenzenesulfonamido)-N-[2-methyl-5-(morpholine-4-sulfonyl)thiophen-3-yl]acetamide] | – | – | – | 93% | 94% | loss of activity | – | –
3 | Cc1sc(S(=O)(=O)N2CCSCC2)cc1NC(=O)CNS(=O)(=O)c1ccc([N+](=O)[O-])cc1 [Compound K375, N-[2-methyl-5-(thiomorpholine-4-sulfonyl)thiophen-3-yl]-2-(4-nitrobenzenesulfonamido) acetamide] | – | – | – | 115% | 150% | increase in the activity | 108% | –
4 | Cc1sc(S(=O)(=O)N2CC[S+]([O-])CC2)cc1NC(=O)CNS(=O)(=O)c1ccc(F)cc1 [Compound K377] | – | – | – | 89% | 80% | – | 98% | no activity as a SHIP activator; also recorded: some inhibition of SHIP1

Continued, in another order:

Row | Malachite (SHIP1), 125 μM (bis-sulfonamide hybrids, 125 μM) | Malachite (SHIP1), 250 μM (bis-sulfonamide hybrids, 250 μM) | Malachite (SHIP1), 500 μM (bis-sulfonamide hybrids, 500 μM) | Phosphatase activity in the Malachite Green Assay, analog concentration 250 μM | Phosphatase activity in the Malachite Green Assay, analog concentration 500 μM | SHIP1 activator activity in the malachite green assay | Phosphatase activity in the Malachite Green Assay, analog concentration 125 μM | SMILES | SHIP1 activator activity in the malachite green assay (listed as 22)
5 | – | – | – | 94% | 83% | loss of potency | 97% | Cc1sc(S(=O)(=O)N2CCSCC2)cc1NC(=O)CNC(=O)c1ccccc1 [Compound K371, N-[2-methyl-5-(thiomorpholine-4-sulfonyl)thiophen-3-yl]-2-(phenylformamido) acetamide] | –
6 | – | – | – | 102% | 105% | loss of potency | 93% | Cc1sc(S(=O)(=O)N2CCSCC2)cc1NC(=O)CNC(=O)OCc1ccccc1 [Compound K373, Benzyl N-({[2-methyl-5-(thiomorpholine-4-sulfonyl)thiophen-3-yl]carbamoyl}methyl) carbamate] | –
7 | – | – | – | 83% | 119% | loss of bioactivity | 99% | Cc1sc(S(=O)(=O)N2CCSCC2)cc1NC(=O)CNS(=O)(=O)c1ccc(I)cc1 [Compound K374, 2-(4-Iodobenzenesulfonamido)-N-[2-methyl-5-(thiomorpholine-4-sulfonyl)thiophen-3-yl]acetamide] | –
8 | – | – | – | 106% | 107% | loss of bioactivity | 104% | Cc1sc(S(=O)(=O)N2CCSCC2)cc1NC(=O)CNS(=O)(=O)c1ccccc1 [Compound K376, 2-Benzenesulfonamido-N-[2-methyl-5-(thiomorpholine-4-sulfonyl)thiophen-3-yl]acetamide] | –
9 | – | – | – | 104% | 107% | reduced effect on SHIP activation | 103% | Cc1sc(S(=O)(=O)N2CCSCC2)cc1NC(=O)CN [Compound K378, 2-Aminotrifluoroacetate-N-[2-methyl-5-(thiomorpholine-4-sulfonyl)thiophene-3-yl]acetamide] | –
